From US10323022B2, “Pyrrolidinyl urea, pyrrolidinyl thiourea and pyrrolidinyl guanidine compounds as TrkA kinase inhibitors” (Array BioPharma Inc., priority 2011, dated 2019)
pIC50: −log10 of the molar value.

biological target: TrkA (Homo sapiens (Human), UniProt P04629); assay: TrkA Omnia Assay; assay type: biochemical; conditions: averaged IC50; 20 nM enzyme, 500 μM ATP, 10 μM peptide substrate
Method: Trk enzymatic selectivity was assessed using Omnia™ Kinase Assay reagents from Invitrogen Corp. Enzyme (TrkA from Invitrogen Corp.) and test compound (various concentrations) were incubated for 10 minutes at ambient temperature in a 384-well white polypropylene plate (Nunc catalog#267462). Omnia Tyr Peptide #4, as well as ATP, were then added to the plate. Final concentrations were as follows: 20 nM enzyme, 500 μM of ATP, 10 μM peptide substrate. The assay buffer consisted of 25 mM MOPS pH 7.5, 0.005% (v/v) Triton X-100 and 5 mM MgCl2. The production of phosphorylated peptide was monitored continuously for 70 minutes using a Molecular Devices FlexStation II^384 microplate reader (excitation=360 nm; emission=485 nm). Initial rates were calculated from the progress curves. IC50 values were calculated from these rates using either a 4 or 5-parameter logistic curve fit.

TrkA, sequence (P04629 33-796): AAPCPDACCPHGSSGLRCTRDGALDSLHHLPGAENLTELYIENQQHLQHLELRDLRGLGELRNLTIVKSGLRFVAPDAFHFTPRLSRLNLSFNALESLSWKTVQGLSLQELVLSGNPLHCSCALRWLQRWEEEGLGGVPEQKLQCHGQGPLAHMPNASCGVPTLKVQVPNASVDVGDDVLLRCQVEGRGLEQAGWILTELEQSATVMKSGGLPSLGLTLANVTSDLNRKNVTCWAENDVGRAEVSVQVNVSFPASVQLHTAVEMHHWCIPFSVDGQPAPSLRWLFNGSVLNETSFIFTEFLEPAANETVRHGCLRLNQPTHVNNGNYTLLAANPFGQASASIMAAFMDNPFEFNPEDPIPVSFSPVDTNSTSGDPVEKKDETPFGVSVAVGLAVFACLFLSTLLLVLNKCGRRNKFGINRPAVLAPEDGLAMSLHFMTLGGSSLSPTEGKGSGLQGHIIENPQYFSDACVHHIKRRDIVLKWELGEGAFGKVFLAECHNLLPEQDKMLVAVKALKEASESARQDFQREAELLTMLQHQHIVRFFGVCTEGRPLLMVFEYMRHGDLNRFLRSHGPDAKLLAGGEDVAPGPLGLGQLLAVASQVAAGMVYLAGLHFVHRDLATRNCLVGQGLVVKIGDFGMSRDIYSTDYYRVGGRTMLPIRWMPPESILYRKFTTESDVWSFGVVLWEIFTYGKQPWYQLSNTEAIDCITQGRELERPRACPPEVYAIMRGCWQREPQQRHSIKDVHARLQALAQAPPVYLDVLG

Row | Structure (SMILES) | pIC50
1 | COCCN1C[C@@H](NC(=O)Nc2c(-c3ccccc3)cnn2C)[C@H](c2ccccc2)C1 (relative stereo) [Example 31, 1-(trans-1-(2-methoxyethyl)-4-phenylpyrrolidin-3-yl)-3-(1-methyl-4-phenyl-1H-pyrazol-5-yl)urea] | 6.00 to 7.00
2 | COCCN1C[C@@H](NC(=O)Nc2c3c(nn2-c2cnn(C)c2)CCC3)[C@H](c2ccccc2)C1 (relative stereo) [Example 33, 1-(trans-1-(2-methoxyethyl)-4-phenylpyrrolidin-3-yl)-3-(2-(1-methyl-1H-pyrazol-4-yl)-2,4,5,6-tetrahydrocyclo-penta[c]pyrazol-3-yl)urea] | 6.00 to 7.00
3 | COCCN1C[C@@H](NC(=O)Nc2c3c(nn2-c2ccccc2)C(C)(C)CCC3)[C@H](c2ccccc2)C1 (relative stereo) [Example 37, 1-(7,7-dimethyl-2-phenyl-4,5,6,7-tetrahydro-2H-indazol-3-yl)-3-(trans-1-(2-methoxyethyl)-4-phenylpyrrolidin-3-yl)urea] | > 7.00
4 | COCCN1C[C@@H](NC(=O)Nc2c3c(nn2-c2ccccc2)CCC3)[C@H](c2cccc(F)c2)C1 (relative stereo) [Example 39, trans-1-(4-(3-fluorophenyl)-1-(2-methoxyethyl)pyrrolidin-3-yl)-3-(2-phenyl-2,4,5,6-tetrahydrocyclopenta[c]pyrazol-3-yl)urea] | > 7.00
5 | COCCN1C[C@@H](NC(=O)Nc2c3c(nn2-c2ccccc2)CCC3)[C@H](c2cnco2)C1 (relative stereo) [Example 46, 1-(trans-1-(2-methoxyethyl)-4-(oxazol-5-yl)pyrrolidin-3-yl)-3-(2-phenyl-2,4,5,6-tetrahydrocyclopenta[c]pyrazol-3-yl)urea] | 5.00 to 6.00
6 | COCCN1C[C@@H](NC(=O)Nc2c3c(nn2-c2ccccc2)CCC3)[C@H](c2ccno2)C1 (relative stereo) [Example 47, 1-(trans-4-(isoxazol-5-yl)-1-(2-methoxyethyl)pyrrolidin-3-yl)-3-(2-phenyl-2,4,5,6-tetrahydrocyclopenta[c]pyrazol-3-yl)urea] | 6.00 to 7.00
7 | O=C(Nc1c2c(nn1-c1ccccc1)CCC2)N[C@@H]1CN(CCOC(F)(F)F)C[C@H]1c1ccccc1 (relative stereo) [Example 182, 1-(trans-4-phenyl-1-(2-(trifluoromethoxy)ethyl)pyrrolidin-3-yl)-3-(2-phenyl-2,4,5,6-tetrahydrocyclopenta[c]pyrazol-3-yl)urea] | > 7.00
8 | COCCOc1nn(-c2ccccc2)c(NC(=O)N[C@@H]2CN(CC(F)(F)F)C[C@H]2c2ccccc2)c1C (relative stereo) [Example 196, 1-(3-(2-methoxyethoxy)-4-methyl-1-phenyl-1H-pyrazol-5-yl)-3-((trans)-4-phenyl-1-(2,2,2-trifluoroethyl)pyrrolidin-3-yl)urea] | > 7.00
9 | O=C(Nc1c2c(nn1-c1ccccc1)CCC2)N[C@@H]1CN(C(CF)CF)C[C@H]1c1ccccc1 (relative stereo) [Example 206, 1-((trans)-1-(1,3-difluoropropan-2-yl)-4-phenylpyrrolidin-3-yl)-3-(2-phenyl-2,4,5,6-tetrahydrocyclopenta[c]pyrazol-3-yl)urea] | 6.00 to 7.00
10 | COc1cccc([C@@H]2CN(CC(F)(F)F)C[C@H]2NC(=O)Nc2c3c(nn2-c2ccccc2)CCC3)c1 (relative stereo) [Example 207, 1-((trans)-4-(3-methoxyphenyl)-1-(2,2,2-trifluoroethyl)pyrrolidin-3-yl)-3-(2-phenyl-2,4,5,6-tetrahydrocyclopenta[c]pyrazol-3-yl)urea] | 6.00 to 7.00
11 | O=C(Nc1c2c(nn1-c1ccccc1)CCC2)N[C@@H]1CN(CC(F)(F)F)C[C@H]1c1cccc(Cl)c1 (relative stereo) [Example 208, 1-((trans)-4-(3-chlorophenyl)-1-(2,2,2-trifluoroethyl)pyrrolidin-3-yl)-3-(2-phenyl-2,4,5,6-tetrahydrocyclopenta[c]pyrazol-3-yl)urea] | 6.00 to 7.00

The remaining lines, values ahead:

Row | pIC50 | Structure (SMILES)
12 | 6.00 to 7.00 | COCCN1C[C@@H](NC(=O)Nc2c(C#N)c(C)nn2-c2ccccc2)[C@H](c2ccccc2)C1 (relative stereo) [Example 32, 1-(4-cyano-3-methyl-1-phenyl-1H-pyrazol-5-yl)-3-(trans-1-(2-methoxy-ethyl)-4-phenylpyrrolidin-3-yl)urea]
13 | 5.00 to 6.00 | COCCN1C[C@@H](NC(=O)Nc2c3c(nn2-c2ccccn2)CCC3)[C@H](c2ccccc2)C1 (relative stereo) [Example 35, 1-(trans-1-(2-methoxyethyl)-4-phenylpyrrolidin-3-yl)-3-(2-(pyridin-2-yl)-2,4,5,6-tetrahydrocyclopenta[c]pyrazol-3-yl)urea]
14 | > 7.00 | COCCN1C[C@@H](NC(=O)Nc2c3c(nn2-c2ccccc2)CCC3)[C@H](c2ccncc2)C1 (relative stereo) [Example 38, 1-(trans-1-(2-methoxyethyl)-4-(pyridin-4-yl)pyrrolidin-3-yl)-3-(2-phenyl-2,4,5,6-tetrahydrocyclopenta[c]pyrazol-3-yl)urea]
15 | > 7.00 | COCCN1C[C@@H](NC(=O)Nc2cc(C(C)C)nn2-c2ccccc2)[C@H](c2cccc(F)c2)C1 (relative stereo) [Example 40, trans-1-(-4-(3-fluorophenyl)-1-(2-methoxyethyl)pyrrolidin-3-yl)-3-(3-isopropyl-1-phenyl-1H-pyrazol-5-yl)urea]
16 | > 7.00 | COCCN1C[C@@H](NC(=O)Nc2cc(C(C)C)nn2-c2ccccc2)[C@H](c2ccc(F)cc2)C1 (relative stereo) [Example 41, trans-1-(4-(4-fluorophenyl)-1-(2-methoxyethyl)pyrrolidin-3-yl)-3-(3-isopropyl-1-phenyl-1H-pyrazol-5-yl)urea]
17 | > 7.00 | COCCN1C[C@@H](NC(=O)Nc2cc(C(C)C)nn2-c2ccccc2)[C@H](c2cccc(Cl)c2)C1 (relative stereo) [Example 42, trans-1-(4-(3-chlorophenyl)-1-(2-methoxyethyl)pyrrolidin-3-yl)-3-(3-isopropyl-1-phenyl-1H-pyrazol-5-yl)urea]
18 | 6.00 to 7.00 | COCCN1C[C@@H](NC(=O)Nc2cc(C(C)C)nn2-c2ccccc2)[C@H](c2ccccc2F)C1 (relative stereo) [Example 43, trans-1-(4-(2-fluorophenyl)-1-(2-methoxyethyl)pyrrolidin-3-yl)-3-(3-isopropyl-1-phenyl-1H-pyrazol-5-yl)urea]
19 | > 7.00 | COCCN1C[C@@H](NC(=O)Nc2cc(C(C)C)nn2-c2ccccc2)[C@H](c2cccs2)C1 (relative stereo) [Example 44, trans-1-(3-isopropyl-1-phenyl-1H-pyrazol-5-yl)-3-(1-(2-methoxyethyl)-4-(thiophen-2-yl)pyrrolidin-3-yl)urea]
20 | 6.00 to 7.00 | CSCCN1C[C@@H](NC(=O)Nc2c3c(nn2-c2ccccc2)CCC3)[C@H](c2ccccc2)C1 (relative stereo) [Example 183, 1-(trans-1-(2-(methylthio)ethyl)-4-phenylpyrrolidin-3-yl)-3-(2-phenyl-2,4,5,6-tetrahydrocyclopenta[c]pyrazol-3-yl)urea]
21 | 6.00 to 7.00 | CCN1C[C@@H](NC(=O)Nc2c3c(nn2-c2ccccc2)CCC3)[C@H](c2ccccc2)C1 (relative stereo) [Example 193, 1-((trans)-1-ethyl-4-phenylpyrrolidin-3-yl)-3-(2-phenyl-2,4,5,6-tetrahydrocyclopenta[c]pyrazol-3-yl)urea]
22 | > 7.00 | O=C(Nc1c2c(nn1-c1ccccc1)CCC2)N[C@@H]1CN(CC(F)(F)F)C[C@H]1c1ccccc1 (relative stereo) [Example 194, 1-((trans)-4-phenyl-1-(2,2,2-trifluoroethyl)pyrrolidin-3-yl)-3-(2-phenyl-2,4,5,6-tetrahydrocyclopenta[c]pyrazol-3-yl)urea]
23 | > 7.00 | Cc1nn(-c2ccccc2)c(NC(=O)N[C@@H]2CN(CC(F)(F)F)C[C@H]2c2ccccc2)c1C (relative stereo) [Example 195, 1-(3,4-dimethyl-1-phenyl-1H-pyrazol-5-yl)-3-((trans)-4-phenyl-1-(2,2,2-trifluoroethyl)pyrrolidin-3-yl)urea]
24 | 6.00 to 7.00 | O=C(Nc1c2c(nn1-c1ccccc1)CCC2)N[C@@H]1CN(CC(F)(F)F)C[C@H]1c1ccccn1 (relative stereo) [Example 209, 1-(2-phenyl-2,4,5,6-tetrahydrocyclopenta[c]pyrazol-3-yl)-3-((trans)-4-(pyridin-2-yl)-1-(2,2,2-trifluoroethyl)pyrrolidin-3-yl)urea]
25 | > 7.00 | O=C(Nc1c2c(nn1-c1ccccc1)CCC2)N[C@@H]1CN(CC(F)(F)F)C[C@H]1c1ccc(F)cc1 (relative stereo) [Example 210, 1-((trans)-4-(4-fluorophenyl)-1-(2,2,2-trifluoroethyl)pyrrolidin-3-yl)-3-(2-phenyl-2,4,5,6-tetrahydrocyclopenta[c]pyrazol-3-yl)urea]
26 | > 7.00 | O=C(Nc1c2c(nn1-c1ccccc1)CCC2)N[C@@H]1CN(CC(F)(F)F)C[C@H]1c1ccc(Cl)cc1 (relative stereo) [Example 211, 1-((trans)-4-(4-chlorophenyl)-1-(2,2,2-trifluoroethyl)pyrrolidin-3-yl)-3-(2-phenyl-2,4,5,6-tetrahydrocyclopenta[c]pyrazol-3-yl)urea]
27 | 5.00 to 6.00 | O=C(Nc1c2c(nn1-c1ccccc1)CCC2)N[C@@H]1CN(CC(F)(F)F)C[C@H]1c1ccccc1Cl (relative stereo) [Example 212, 1-((trans)-4-(2-chlorophenyl)-1-(2,2,2-trifluoroethyl)pyrrolidin-3-yl)-3-(2-phenyl-2,4,5,6-tetrahydrocyclopenta[c]pyrazol-3-yl)urea]
